24 compounds from patent US7595401B2, “Therapeutic compounds and their use in cancer” (Myriad Pharmaceuticals, Inc., priority 2006, dated 2009) can be followed below.

One test concerns purified human Hsp90. As to the kind of experiment: Binding Assay: fluorescence polarization with BODIPY-labeled geldanamycin. The following applies: 5 μM compound, BODIPY-GM 10 nM, Hsp90 30 nM. The method, boiled down: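 Compounds in 2% DMSO final compete with 10 nM BODIPY-GM for 30 nM purified human Hsp90, incubated overnight at room temperature in pH 7.3 HEPES buffer containing Na2MoO4 and DTT. Polarization (mP, ex/em 485/530) normalized to DMSO gives percent inhibition; autofluorescence-confounded data excluded.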
One may read the % Inhibition as the relative decrease from the control value, in per cent. The low end stands for a response near the control, the high end for a response far below the control. As to `CCCNC(=N)N1CCC(CCn2cnc(N)c3nc(Sc4cc5c(cc4Br)OCO5)nc2-3)CC1` [Example 619, 4-(2-{6-Amino-8-[(6-bromo-1,3-benzodioxol-5-yl)thio]-3 H-purin-3-yl}ethyl)-N-propylpiperidine-1-carboximidamide], the “% Inhibition at 5 μM Compound Concentration” value (“% Inhibition” below) amounted to 76.00%.
`CCC(CC)N1CCN(CCn2cnc(N)c3nc(Sc4cc(OC)ccc4OC)nc2-3)CC1` [Example 628, 8-[(2,5-Dimethoxyphenyl)thio]-3-{2-[4-(1-ethylpropyl)piperazin-1-yl]ethyl}-3 H-purin-6-amine]: the “% Inhibition” value worked out at 23.00%.
As for `COc1ccc(OC)c(Sc2nc3c(N)ncn(CCN4CCOCC4)c-3n2)c1` [Example 636, 8-[(2,5-Dimethoxyphenyl)thio]-3-(2-morpholin-4-ylethyl)-3 H-purin-6-amine], the “% Inhibition” value is 25.00%.
Consider `CC(C)(C)OC(=O)N1CCC(Cn2cnc(N)c3nc(Sc4cc5c(cc4Br)OCO5)nc2-3)CC1` [Example 640, tert-Butyl 4-({6-amino-8-[(6-bromo-1,3-benzodioxol-5-yl)thio]-3 H-purin-3-yl}methyl)piperidine-1-carboxylate], for which the “% Inhibition” value is given as 19.00%.
As for `CC(C)(C)OC(=O)N1CCCC(Cn2cnc(N)c3nc(Sc4cc5c(cc4Br)OCO5)nc2-3)C1` (stereo not drawn) [Example 642, tert-Butyl 3-({6-amino-8-[(6-bromo-1,3-benzodioxol-5-yl)thio]-3 H-purin-3-yl}methyl)piperidine-1-carboxylate], the “% Inhibition” value was 15.00%.

Still in this test, the particulars now being: BODIPY-GM 10 nM, Hsp90 30 nM.
A word on the IC50: it is the concentration needed to halve the response being measured. `CC(=O)N1CCC(CCn2c(Sc3cc4c(cc3C#N)OCO4)nc3c(N)ncnc32)CC1` [Example 620, 6-({9-[2-(1-Acetylpiperidin-4-yl)ethyl]-6-amino-9 H-purin-8-yl}thio)-1,3-benzodioxole-5-carbonitrile] gave an IC50 of 170 nM.
In turn, `CC(=O)N1CCC(CCn2cnc(N)c3nc(Sc4cc5c(cc4C#N)OCO5)nc2-3)CC1` [Example 621, 6-({3-[2-(1-Acetylpiperidin-4-yl)ethyl]-6-amino-3 H-purin-8-yl}thio)-1,3-benzodioxole-5-carbonitrile] gave an IC50 of over 5000 nM.
`COc1cc(C#N)c(Sc2nc3c(N)ncnc3n2CCC2CCN(C(C)=O)CC2)cc1OC` [Example 622, 2-({9-[2-(1-Acetylpiperidin-4-yl)ethyl]-6-amino-9 H-purin-8-yl}thio)-4,5-dimethoxybenzonitrile] had an IC50 of over 5000 nM.
`COc1cc(C#N)c(Sc2nc3c(N)ncn(CCC4CCN(C(C)=O)CC4)c-3n2)cc1OC` [Example 623, 2-({3-[2-(1-Acetylpiperidin-4-yl)ethyl]-6-amino-3 H-purin-8-yl}thio)-4,5-dimethoxybenzonitrile] gave an IC50 of over 4000 nM.
With `COCc1cc2c(cc1Sc1nc3c(N)ncnc3n1CCC1CCN(C=O)CC1)OCO2` [Example 624, 4-[2-(6-Amino-8-{[6-(methoxymethyl)-1,3-benzodioxol-5-yl]thio}-9 H-purin-9-yl)ethyl]piperidine-1-carbaldehyde], the IC50 came to 580 nM.
As to `C#CCN1CCC(CCn2c(Sc3cc4c(cc3Br)OCO4)nc3c(N)ncnc32)CC1` [Example 625, 8-[(6-Bromo-1,3-benzodioxol-5-yl)thio]-9-[2-(1-prop-2-yn-1-ylpiperidin-4-yl)ethyl]-9 H-purin-6-amine], the IC50 came out at 110 nM.
On to `CCC(CC)N1CCN(CCn2c(Sc3cc(OC)ccc3OC)nc3c(N)ncnc32)CC1` [Example 627, 8-[(2,5-Dimethoxyphenyl)thio]-9-{2-[4-(1-ethylpropyl)piperazin-1-yl]ethyl}-9 H-purin-6-amine], for which the IC50 was over 8000 nM.
`COc1ccc(OC)c(Sc2nc3c(N)ncnc3n2CCN2CCN(C(C)=O)CC2)c1` [Example 629, 9-[2-(4-Acetylpiperazin-1-yl)ethyl]-8-[(2,5-dimethoxyphenyl)thio]-9 H-purin-6-amine]: the IC50 is over 25000 nM.
With `COc1ccc(OC)c(Sc2nc3c(N)ncn(CCN4CCN(C(C)=O)CC4)c-3n2)c1` [Example 630, 3-[2-(4-Acetylpiperazin-1-yl)ethyl]-8-[(2,5-dimethoxyphenyl)thio]-3 H-purin-6-amine], the IC50 is 9000 nM.
Take `COc1ccc(OC)c(Sc2nc3c(N)ncnc3n2CCN2CCN(C)CC2)c1` [Example 631, 8-[(2,5-Dimethoxyphenyl)thio]-9-[2-(4-methylpiperazin-1-yl)ethyl]-9 H-purin-6-amine]: the IC50 is 2000 nM.
The compound `Nc1ncnc2c1nc(Sc1cc3c(cc1Br)OCO3)n2CCN1CCN(C2CCCC2)CC1` [Example 632, 8-[(6-Bromo-1,3-benzodioxol-5-yl)thio]-9-[2-(4-cyclopentylpiperazin-1-yl)ethyl]-9 H-purin-6-amine] displayed an IC50 of over 3000 nM.
`CC(C)(C)C(=O)N1CCN(CCn2c(Sc3cc4c(cc3Br)OCO4)nc3c(N)ncnc32)CC1` [Example 633, 8-[(6-Bromo-1,3-benzodioxol-5-yl)thio]-9-{2-[4-(2,2-dimethylpropanoyl)piperazin-1-yl]ethyl}-9 H-purin-6-amine] displayed an IC50 of 1500 nM.
In the case of `COc1ccc(OC)c(Sc2nc3c(N)ncnc3n2CCN2CCNC(=O)C2)c1` [Example 634, 4-(2-{6-Amino-8-[(2,5-dimethoxyphenyl)thio]-9 H-purin-9-yl}ethyl)piperazin-2-one], the IC50 was 8100 nM.
Same read-out and setting: for `CC(C)(C)OC(=O)N1CCCC(CCCn2c(Sc3cc4c(cc3Br)OCO4)nc3c(N)ncnc32)C1` (stereo not drawn) [Example 637, tert-Butyl 3-(3-{6-amino-8-[(6-bromo-1,3-benzodioxol-5-yl)thio]-9 H-purin-9-yl}propyl)piperidine-1-carboxylate] the value was over 25000 nM; for `CC(C)(C)OC(=O)N1CCCCC1CCCn1c(Sc2cc3c(cc2Br)OCO3)nc2c(N)ncnc21` (stereo not drawn) [Example 638, tert-Butyl 2-(3-{6-amino-8-[(6-bromo-1,3-benzodioxol-5-yl)thio]-9 H-purin-9-yl}propyl)piperidine-1-carboxylate], over 25000 nM.
The same measure, in the same setting: next, `CC(C)(C)OC(=O)N1CCC(Cn2c(Sc3cc4c(cc3Br)OCO4)nc3c(N)ncnc32)CC1` [Example 639, tert-Butyl 4-({6-amino-8-[(6-bromo-1,3-benzodioxol-5-yl)thio]-9 H-purin-9-yl}methyl)piperidine-1-carboxylate]: 900 nM.
With `CC(C)(C)OC(=O)N1CCCC(Cn2c(Sc3cc4c(cc3Br)OCO4)nc3c(N)ncnc32)C1` (stereo not drawn) [Example 641, tert-Butyl 3-({6-amino-8-[(6-bromo-1,3-benzodioxol-5-yl)thio]-9 H-purin-9-yl}methyl)piperidine-1-carboxylate], the half-inhibitory concentration (IC50) was determined as 1100 nM.
`CCOP(=O)(OCC)N1CCCCC1CCn1c(Sc2cc3c(cc2Br)OCO3)nc2c(N)ncnc21` (stereo not drawn) [Example 643, Diethyl [2-(2-{6-amino-8-[(6-bromo-1,3-benzodioxol-5-yl)thio]-9 H-purin-9-yl}ethyl)piperidin-1-yl]phosphonate] returned an IC50 of 5000 nM.
The compound `CCOP(=O)(OCC)N1CCC(CCn2c(Sc3cc4c(cc3Br)OCO4)nc3c(N)ncnc32)CC1` [Example 644, Diethyl [4-(2-{6-amino-8-[(6-bromo-1,3-benzodioxol-5-yl)thio]-9 H-purin-9-yl}ethyl)piperidin-1-yl]phosphonate] showed an IC50 of 200 nM.
